According to article PMC10464103, “Antibacterial peptide PMAP-37(F34-R), expressed in Pichia pastoris, is effective against pathogenic bacteria and preserves plums” (Microbial Cell Factories, 2023):
Peptide text beside a SMILES is read from it.

Assays:
[1] = system: S. aureus, Listeria monocytogenes, B. subtilis, Salmonella typhimurium, E. coli O157, E. coli; experiment: Inhibition zone method; type: cell-based; conditions: inhibition zone in LB agar; three Gram-positive and three Gram-negative bacteria; positive control 50 µg/mL gentamicin
Description: (§1) The inhibition zone method was performed as described in a previous study with slight modifications. Fifty microliters of the bacterial solution was mixed with 15 mL lysogeny broth, and the inhibition zone of the six bacteria was determined by drilling after coagulation. The stability of PMAP-37(F34-R) against S. aureus was determined using the inhibition zone method. 4 µg/mL PMAP-37(F-34R) was dissolved in buffers with different pH (2, 4, 6, 8, and 10), different proteases (papain, pepsin, trypsin, and protease K), and different temperatures (4, 25, 37, 65, and 90 °C). The stability profiles under various pH, proteases, and temperatures were determined. Untreated buffer was used as a negative control.

S. aureus [2] = experiment: Stability at different temperatures and pH, read out by inhibition zone; type: physicochemical; conditions: 4 µg/mL peptide, antibacterial activity against S. aureus by inhibition zone
Description: as §1

S. aureus [3] = experiment: Total nucleotide leakage; type: cell-based; conditions: within 30 min after treatment; 37 °C, PBS; OD 260 nm of supernatant
Description: The total nucleotide leakage experiment was performed according to a previously reported method with slight modifications. S. aureus was collected, washed twice, and resuspended in PBS to an OD600 of 0.8. Antimicrobial peptides were added and incubated at 37 °C for various durations. The bacterial solution was centrifuged to remove S. aureus. The OD of the supernatant was recorded at a wavelength of 260 nm.

S. aureus [4] = experiment: Membrane permeability, PI staining; type: cell-based; conditions: 37 °C, 30 min with peptide, then PI; fluorescence microscope
Description: The permeability assay was performed as previously described with slight modifications. S. aureus was until the OD600 reached 0.3–0.6, washed three times with PBS, and resuspended to 1 × 10^8 CFU/mL. The bacteria (100 µL) were mixed with 50 µL of antimicrobial peptide and incubated at 37 °C for 30 min, with PBS as a control. The supernatant was centrifuged and discarded, the bacteria were resuspended with PI-diluted dye, and stained at 37 °C for 30 min. After washing three times with PBS, the unbound stain was removed, and 10 µL of PBS was taken; an appropriate amount of […] was added onto the slide, the cover glass was observed by fluorescence microscope.

[5] = design: method as in PMID 31858653; conditions: compared with antibiotic; cited from earlier work

SMILES: CC[C@H](C)[C@H](NC(=O)[C@H](CCCNC(=N)N)NC(=O)[C@H](CCC(=O)O)NC(=O)[C@@H](NC(=O)[C@H](CCCCN)NC(=O)[C@H](CCC(=O)O)NC(=O)CNC(=O)[C@H](CC(C)C)NC(=O)[C@H](CCCNC(=N)N)NC(=O)[C@H](CCCNC(=N)N)NC(=O)CNC(=O)[C@H](CCCNC(=N)N)NC(=O)[C@H](CC(=O)O)NC(=O)[C@H](CO)NC(=O)[C@H](CC(C)C)NC(=O)[C@H](Cc1ccccc1)NC(=O)[C@H](CC(=O)O)NC(=O)[C@H](CCCNC(=N)N)NC(=O)[C@H](CC(C)C)NC(=O)[C@H](CCCNC(=N)N)NC(=O)[C@H](CO)NC(=O)[C@H](CC(C)C)NC(=O)[C@H](CC(C)C)NC(=O)CN)[C@@H](C)CC)C(=O)NCC(=O)N[C@@H](CCC(N)=O)C(=O)N[C@@H](CCCCN)C(=O)N[C@H](C(=O)N[C@@H](CCCCN)C(=O)N[C@@H](CC(=O)O)C(=O)N[C@@H](CC(C)C)C(=O)N[C@@H](CO)C(=O)N[C@@H](CCC(=O)O)C(=O)N[C@@H](CCCNC(=N)N)C(=O)N[C@@H](Cc1ccccc1)C(=O)N[C@@H](CCC(N)=O)C(=O)N[C@@H](CO)C(=O)O)[C@@H](C)CC [PMAP-37(F34-R)] (H-GLLSRLRDFLSDRGRRLGEKIERIGQKIKDLSERFQS-OH; N-terminus and C-terminus assumed)
- inhibitory effect (inhibition zone) [1]: inhibited all six bacteria tested
- stability at other temperatures (S. aureus [2]; 4, 25, 37, 65 °C): maintained good stability
- stability at high temperature (S. aureus [2]; 90 °C): partially affected
- stability at other pH (S. aureus [2]; pH 2, 4, 6, 8 buffers): maintained good stability
- stability in strong base (S. aureus [2]; pH = 10 buffer): partially affected
- nucleotide leakage (S. aureus [3]): increased significantly
- PI staining (membrane integrity) (S. aureus [4]): extensive cell death
- efficacy in animal experiments [5]: comparable to that of ceftifol sodium
